Source: article PMC9917816, “STS1 and STS2 Phosphatase Inhibitor Baicalein Enhances the Expansion of Hematopoietic and Progenitor Stem Cells and Alleviates 5-Fluorouracil-Induced Myelosuppression” (International Journal of Molecular Sciences, 2023)

How the values were obtained:
[1] = target: T1, STS1-HP (STS1 histidine phosphatase domain) (Homo sapiens, UniProt Q8TF42); test: pNPP phosphatase inhibition assay, absorbance at […] nm; format: biochemical; settings: pNPP substrate, pH 7.2, 25 °C, 10 min; name misprinted as baicalin in b9
T1 construct: gene UBASH3B
T1 sequence (Q8TF42 380-649 limits assumed): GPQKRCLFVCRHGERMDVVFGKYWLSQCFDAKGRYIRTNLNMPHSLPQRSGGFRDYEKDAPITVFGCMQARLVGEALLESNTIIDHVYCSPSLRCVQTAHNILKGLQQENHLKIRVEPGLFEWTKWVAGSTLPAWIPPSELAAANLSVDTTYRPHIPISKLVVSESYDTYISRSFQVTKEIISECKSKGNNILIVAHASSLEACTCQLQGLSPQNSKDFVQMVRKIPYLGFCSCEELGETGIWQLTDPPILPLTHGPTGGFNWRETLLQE

[2] = target: T1, STS1-HP (STS1 histidine phosphatase domain); test: capillary electrophoresis, migration time shift; format: binding; settings: 20 mM PBS, pH 7.0, 20 kV, UV 230 nm
[3] = target: T2, STS2-HP (STS2 histidine phosphatase domain) (Homo sapiens, UniProt P57075); test: pNPP phosphatase inhibition assay, absorbance at […] nm; format: biochemical; settings: read-out: % inhibition at 10 μg/mL
T2 construct: gene UBASH3A
T2 sequence (P57075 385-661 limits assumed): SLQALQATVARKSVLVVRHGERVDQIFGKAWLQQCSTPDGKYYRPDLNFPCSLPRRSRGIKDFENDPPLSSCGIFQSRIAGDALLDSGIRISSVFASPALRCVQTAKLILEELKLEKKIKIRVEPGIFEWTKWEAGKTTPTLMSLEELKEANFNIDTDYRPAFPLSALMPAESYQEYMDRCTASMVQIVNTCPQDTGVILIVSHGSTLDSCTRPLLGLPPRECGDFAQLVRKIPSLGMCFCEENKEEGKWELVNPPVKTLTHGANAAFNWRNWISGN

With O=c1cc(-c2ccccc2)oc2cc(O)c(O)c(O)c12 [baicalein] the “% inhibition at 10 μg/mL” value [1] was “(BC) could significantly inhibit the phosphatase activity of STS1 in vitro”, the “capillary electrophoresis, migration time shift” value [2] was “migration times of STS1 and STS2 proteins were markedly delayed when BC was added” and the inhibition at 10 µg/mL [3] was 13.8%.
